The term pIC50 denotes the negative decadic logarithm of the IC50, by convention in mol/L. A high value points to a small IC50. One may read the pKi as −log10 of the Ki, conventionally taken in molar units. Read a high pKi as a low Ki.

Drawing on BindingDB's records for doi:10.1021/jm030165t (National Center For Genetic Engineering and Biotechnology …, 2004), this text covers IC50 and Ki for four compounds.

The nature of assay [1]: In vitro anti-plasmodial activity against Plasmodium falciparum dihydrofolate reductase C59R+S108N/I164L (Csl-2) mutant.
Assay [2] in a line: In vitro anti-plasmodial activity against Plasmodium falciparum dihydrofolate reductase A16V/S108T (T9/94RC17) mutant.
A short description of assay [3]: In vitro anti-plasmodial activity against Plasmodium falciparum dihydrofolate reductase […]/C59R/S108N/I164L (V1/S) mutant.
The nature of assay [4]: In vitro anti-plasmodial activity against Plasmodium falciparum dihydrofolate reductase wild type (TM4/8.2).
For assay [5], the target named is Bifunctional dihydrofolate reductase-thymidylate synthase (Plasmodium falciparum (isolate K1 / Thailand), UniProt P13922). In words: Binding affinity towards wild-type dihydrofolate reductase of Plasmodium falciparum.
Bifunctional dihydrofolate reductase-thymidylate synthase, sequence (P13922 whole entry): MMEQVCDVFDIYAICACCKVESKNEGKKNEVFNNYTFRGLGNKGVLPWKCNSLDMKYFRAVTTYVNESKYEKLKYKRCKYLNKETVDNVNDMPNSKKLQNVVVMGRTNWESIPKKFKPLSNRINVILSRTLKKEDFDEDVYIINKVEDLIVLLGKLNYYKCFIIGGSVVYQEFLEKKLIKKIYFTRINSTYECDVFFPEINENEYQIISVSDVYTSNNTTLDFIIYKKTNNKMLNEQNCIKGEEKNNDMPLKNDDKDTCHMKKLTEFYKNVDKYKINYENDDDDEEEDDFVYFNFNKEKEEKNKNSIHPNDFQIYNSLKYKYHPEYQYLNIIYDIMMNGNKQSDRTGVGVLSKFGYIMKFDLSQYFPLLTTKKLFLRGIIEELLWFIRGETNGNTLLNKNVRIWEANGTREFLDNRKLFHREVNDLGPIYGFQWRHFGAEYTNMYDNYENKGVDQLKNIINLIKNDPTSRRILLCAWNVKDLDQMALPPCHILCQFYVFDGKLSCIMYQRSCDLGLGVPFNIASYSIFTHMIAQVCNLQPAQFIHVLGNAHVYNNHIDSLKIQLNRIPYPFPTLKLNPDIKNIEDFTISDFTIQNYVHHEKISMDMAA
A short description of assay [6]: In vitro anti-plasmodial activity against Plasmodium falciparum dihydrofolate reductase C59R/S108N (K1CB1) mutant.
Assay [7] can be described thus: In vitro anti-plasmodial activity against Plasmodium falciparum dihydrofolate reductase N51I/C59R/S108N (W2).

Structures are written as SMILES. pIC50, pKi: −log10 of the molar value.

With `NC1=NC(c2ccc(Oc3ccccc3)cc2)N(c2cccc(Cl)c2)C(N)=N1` (stereo not drawn) [1-(3-chlorophenyl)-6-(4-phenoxyphenyl)-1,6-dihydro-1,3,5-triazine-2,4-diamine], the pIC50 in assay [1] is 5.48; in assay [2] it was 8.40; in assay [3] it was 5.48; in assay [4] it was 6.19; in assay [6], 5.51; in assay [7], 6.13. The compound further gave a pKi in assay [5] of 9.15.

For `CCCCCCCC1N=C(N)N=C(N)N1c1cccc(Cl)c1` (stereo not drawn) [1-(3-Chloro-phenyl)-6-heptyl-1,6-dihydro-[1,3,5]triazine-2,4-diamine], the pIC50 is 6.85 in assay [1]; 8.40 in assay [2]; 5.60 in assay [3]; 7.40 in assay [4]; 6.59 in assay [6]; 6.48 in assay [7]. The pKi in assay [5] was 8.57.

For the compound `CCCCCCC1(C)N=C(N)N=C(N)N1c1ccc(Cl)cc1` (stereo not drawn) [1-(4-chlorophenyl)-6-hexyl-6-methyl-1,6-dihydro-1,3,5-triazine-2,4-diamine], the negative logarithm of the IC50 (pIC50) is 5.39 in assay [1]; 5.72 in assay [2]; 5.19 in assay [3]; 7.70 in assay [4]; 5.62 in assay [6]; 5.48 in assay [7]. Also, the pKi in assay [5] was 9.22.

`NC1=NC(c2cccc(Oc3ccc(Cl)cc3)c2)N(c2cccc(Cl)c2)C(N)=N1` (stereo not drawn) [6-(3-(4-chlorophenoxy)phenyl)-1-(3-chlorophenyl)-1,6-dihydro-1,3,5-triazine-2,4-diamine]: the pIC50 is 5.51 in assay [1]; 6.41 in assay [2]; 5.49 in assay [3]; 5.41 in assay [4]; 5.59 in assay [6]; 5.70 in assay [7]. Moreover, in assay [5], the pKi is 8.89.
